For four compounds, IC50 results are on record in PMC8125615 (Molecules, 2021).

For one experiment, the target named is SARS CoV-2 M^pro (Severe acute respiratory syndrome coronavirus 2, UniProt P0DTD1). Description: In vitro enzyme inhibition assay (SARS-CoV-2 main protease assay kit, fluorescence). In kind it is biochemical. The protocol:
GC376 was used as a reference standard inhibitor.
Briefly, 10 µL of test compounds of different concentrations were added into a 96-well plate followed by pipetting 30 µL of the diluted protease 15 µg/mL. The mixtures were incubated for 30 min at room temperature, and then 10 µL of the substrate was dissolved in the reaction buffer and added to reach a 50-µL final volume and 40-µM final concentration. The reaction mixture was then incubated for 4 h at 20 °C followed by measuring the produced fluorescence using a TECAN spark microplate-reading fluorimeter.

The next experiment deals with SARS CoV M^pro. The note with it: cited from earlier work.
[1] abbreviates: SARS CoV-2 M^pro, fluorescence kit assay, GC376 as reference standard, read-out: IC50.

Structures are written as SMILES. Like-named read-outs stand apart in the source and are kept apart here.

As a reminder, the IC50 is the point on the concentration scale where inhibition reaches its midpoint. `C=C(C)[C@@H]1CC[C@]2(CO)CC[C@]3(C)[C@H](CC[C@@H]4[C@@]5(C)CC[C@H](O)C(C)(C)[C@@H]5CC[C@]43C)[C@@H]12` [betulin]: the IC50 at SARS CoV-2 M^pro (setting [1]) came to 89.7 µM.
In the case of `C=C(C)[C@@H]1CC[C@]2(C(=O)O)CC[C@]3(C)[C@H](CC[C@@H]4[C@@]5(C)CC[C@H](O)C(C)(C)[C@@H]5CC[C@]43C)[C@@H]12` [betulinic acid], the IC50 against SARS CoV-2 M^pro was 14.5 ± 1.3 µM; in the experiment with SARS CoV M^pro it was 10 µM.
On to `CC1(C)CC[C@]2(C(=O)O)CC[C@]3(C)C(=CC[C@@H]4[C@@]5(C)C[C@@H](O)[C@H](O)C(C)(C)[C@@H]5CC[C@]43C)[C@@H]2C1` [maslinic acid], for which the 50% inhibitory concentration (IC50) on SARS CoV-2 M^pro (setting [1]) was 3.22 ± 0.26 µM.
The same measure, in the same setting: in the case of `C[C@H]1[C@H](C)CC[C@]2(C(=O)O)CC[C@]3(C)C(=CC[C@@H]4[C@@]5(C)CC[C@H](O)C(C)(C)[C@@H]5CC[C@]43C)[C@H]12` [ursolic acid] it was 12.6 ± 0.28 µM.
